{"source": "patent US20240408062A1", "about": "(Purdue Research Foundation, priority 2022, published 2024)", "data": [{"target": "SARS-CoV-2 3CLpro (Severe acute respiratory syndrome coronavirus 2, UniProt P0DTD1)", "experiment": "Inhibition of SARS-CoV-2 3CLpro, continuous fluorescence assay with FRET-based substrate UIVT3", "type": "biochemical", "conditions": "FRET substrate UIVT3, 50-200 nM enzyme, pH 7.5, 25° C.", "description": "Kinetic assays were performed in Costar 3694 EIA/RIA 96-well half-area, flat bottom, black polystyrene plates (Corning, Corning, NY) at 25° C. The increase in fluorescence intensity was measured at an emission wavelength of 528 nm (20 nm bandwidth) using an excitation wavelength of 485 (bandwidth 20 nm) using a CLARIOstar Plate Reader (BMG Labtech, Cary, NC). The initial rates of the reactions were determined from the slopes of the Relative Fluorescence Units (RFU) versus time (RFU min^−1). Inhibition data were collected and analyzed as described previously.", "values": [{"compound": "CC(C)C[C@H](CC(=O)[C@@H](NC(=O)C(F)(F)F)C(C)(C)C)C(=O)N[C@@H](C[C@@H]1CCNC1=O)C(=O)C(=O)c1ccccc1", "note": "[Compound 4]", "Activity of SARS-CoV-2 Mpro inhibitors": "A++ (A++ < 1 μM)"}, {"compound": "CC(C)C[C@@H](C(=O)N[C@@H](C[C@@H]1CCNC1=O)C(=O)C(=O)c1ccccc1)N(C)C(=O)[C@@H](NC(=O)C(F)(F)F)C(C)(C)C", "note": "[Compound 2]", "Activity of SARS-CoV-2 Mpro inhibitors": "A+ (A+ < 10 μM)"}, {"compound": "CC(C)C[C@@H](C(=O)N[C@@H](CC1CCCNC1=O)C(=O)C(=O)c1ccccc1)N(C)C(=O)[C@@H](NC(=O)C(F)(F)F)C(C)(C)C", "note": "(some centres unmarked) [Compound 5]", "Activity of SARS-CoV-2 Mpro inhibitors": "A++ (A++ < 1 μM)"}, {"compound": "COc1cccc2[nH]c(C(=O)N[C@@H](CC(C)C)C(=O)N[C@@H](C[C@@H]3CCNC3=O)C(=O)C(=O)c3ccccc3)cc12", "note": "[Compound 1]", "Activity of SARS-CoV-2 Mpro inhibitors": "A++ (A++ < 1 μM)"}, {"compound": "CN(C(=O)[C@@H](NC(=O)C(F)(F)F)C(C)(C)C)[C@H](CC1CCCC1)C(=O)NC(C[C@@H]1CCNC1=O)C(=O)C(=O)c1ccccc1", "note": "(some centres unmarked) [Compound 3]", "Activity of SARS-CoV-2 Mpro inhibitors": "A+ (A+ < 10 μM)"}]}]}
